Consider 29 compounds from US20100286215A1, “BIS-AROMATIC COMPOUNDS USEFUL IN THE TREATMENT OF INFLAMMATION” (BIS-AROMATIC COMPOUNDS USEFUL IN THE TREATMENT OF …, priority 2007, published 2010).

The target of the assay is T1, Recombinant human LTC4 synthase (Homo sapiens, UniProt Q16873).
T1 construct: made in house; host or cells: Pichia pastoris ('Piccia pastoralis' [sic])
T1 sequence (Q16873 1-150): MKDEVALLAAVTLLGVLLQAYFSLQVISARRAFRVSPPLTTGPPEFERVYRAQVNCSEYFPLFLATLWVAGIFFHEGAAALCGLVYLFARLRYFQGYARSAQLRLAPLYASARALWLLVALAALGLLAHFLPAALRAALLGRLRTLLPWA
The assay can be described thus: LTC4 synthase assay (conversion of LTA4 methyl ester to LTC4 methyl ester, HPLC). Type of assay: biochemical. Conditions: for inhibition at 10 µM: read-out: Percantage Inhibition at 10 μM (unless specified otherwise). As to the method: In the assay LTC4 synthase catalyses the reaction where the substrate LTA4 methyl ester is converted to LTC4 methyl ester. Recombinant human LTC4 synthase is expressed in Piccia pastoralis and the purified enzyme is dissolved in 25 mM Tris-buffer pH 7.8 and stored at −20° C. The assay is performed in phosphate buffered saline (PBS) pH 7.4, supplemented with 5 mM glutathione (GSH). The reaction is terminated by addition of acetonitrile/MeOH/acetic acid (50/50/1). The assay is performed at rt in 96-well plates. Analysis of the formed LTC4 methyl ester is performed with reversed phase HPLC (Waters 2795 utilizing an Onyx Monolithic C18 column). The mobile phase consists of acetonitrile/MeOH/H2O (32.5/30/37.5) with 1% acetic acid pH adjusted with NH3 to pH 5.6, and absorbance measured at 280 nm with a Waters 2487 UV-detector.
The following is added chronologically to each well: • 1. 50 μl assay buffer, PBS with 5 mM GSH. • 2. 0.5 μl inhibitor in DMSO. • 3. 2 μl LTC4 synthase in PBS. The total protein concentration in this solution is 0.025 mg/ml. Incubation of the plate at room temperature for 10 minutes. • 4. 0.5 μl LTA4 methyl ester. Incubation of the plate at rt for 1 min. • 5. 50 μl stop solution. 80 μl of the incubation mixture is analysed with HPLC.

Each structure is given as a SMILES string.

Take `O=C(c1ccc(Nc2ccc(Cl)cc2)c(C(=O)O)c1)c1ccc(Nc2ccc(Cl)cc2)c(C(=O)O)c1` [11:1, 5-{3-Carboxy-[4-(4-chloro-phenylamino)]-benzoyl}-2-(4-chloro-phenylamino)-benzoic acid]: the inhibition at 10 µM (inhibitor concentration 10 μM) turned out to be 97%.
In the case of `CCCCc1ccc(C(=O)Nc2ccc(C(=O)c3ccc(NC(=O)c4ccc(C(F)(F)F)cc4)c(C(=O)O)c3)cc2C(=O)O)cc1` [Example 9, 2-(4-butylbenzamido)-5-(4-(4-(trifluoromethyl)benzamido)-3-carboxyphenylcarbonyl)-benzoic acid], the inhibition at 0.3 µM (inhibitor concentration 0.3 μM, read-out: Percantage Inhibition (at a concentration of 0.3 μM)) was found to be 92%.
Turning to `CCCCOc1ccc(S(=O)(=O)Nc2ccc(C(=O)c3ccc(Nc4ccc(F)c(F)c4)c(C(=O)O)c3)cc2)cc1` [Example 14, 5-(4-(4-butoxyphenylsulfonamido)benzoyl)-2-(3,4-difluorophenylamino)benzoic acid], the inhibition at 10 µM (inhibitor concentration 10 μM) was 100%.
For `COc1ccc(Cl)cc1S(=O)(=O)Nc1ccc(C(=O)c2ccc(NC(=O)c3cccc(Cl)c3)cc2)cc1C(=O)O` [7:3, 5-[4-(3-Chloro-benzoylamino)-benzoyl]-2-(5-chloro-2-methoxy-benzenesulfonylamino)-benzoic acid], the inhibition at 10 µM (inhibitor concentration 10 μM) worked out at 96%.
For the compound `O=C(c1ccc(Oc2ccc(Cl)cc2)c(C(=O)O)c1)c1ccc(Oc2ccc(Cl)cc2)c(C(=O)O)c1` [11:3, 5-{3-Carboxy-[4-(chlorophenoxy)]-benzoyl}-2-(4-chlorophenoxy)-benzoic acid], for the setting “inhibitor concentration 10 μM”, the “Percantage Inhibition at 10 μM (unless specified otherwise)” value is recorded as 97%.
In the case of `O=C(c1ccc(NS(=O)(=O)c2ccc(Cl)cc2)cc1)c1ccc(NC(=O)c2cccc(C(F)(F)F)c2F)c(C(=O)O)c1` [7:9, 5-[4-(4-Chloro-benzenesulfonylamino)-benzoyl]-2-(2-fluoro-3-trifluoromethyl-benzoylamino)-benzoic acid], where the note is “inhibitor concentration 10 μM”, the inhibition at 10 µM was 99%.
Same read-out and setting: for `COc1cc(Cl)ccc1Oc1ccc(C(=O)c2ccc(N(C)c3ccc(Cl)cc3)cc2)cc1C(=O)O` [6:5, 2-(4-Chloro-2-methoxy-phenoxy)-5-{4-[(4-chloro-phenyl)-methyl-amino]-benzoyl}-benzoic acid] the value was 98%; for `CCOc1ccc(NC(=O)Nc2ccc(C(=O)c3ccc(Nc4ccc(F)c(F)c4)c(C(=O)O)c3)cc2)cc1` [5:2, 2-(3,4-Difluoro-phenylamino)-5-{4-[3-(4-ethoxy-phenyl)-ureido]-benzoyl}-benzoic acid], 100%.
Still for that read-out and setting: for `O=C(c1ccc(NC(=O)c2cc(Cl)cnc2Cl)cc1)c1ccc(Nc2ccc(F)c(F)c2)c(C(=O)O)c1` [5:12, 5-{4-[(2,5-Dichloro-pyridine-3-carbonyl)-amino]-benzoyl}-2-(3,4-difluoro-phenylamino)-benzoic acid] the value was 98%.
For orientation: IC50 means the concentration that inhibits the measured activity by half. As to `CCCCOc1ccc(S(=O)(=O)Nc2ccc(C(=O)c3ccc(NC(=O)c4ccc(OC(C)C)cc4)c(C(=O)O)c3)cc2C(=O)O)cc1` [Example 13, 5-[(3-Carboxy-4-(4-n-butoxy-benzenesulfonylamino)benzoyl)]-2-(4-isopropoxybenzoylamino)-benzoic acid], the IC50 was determined as 86 nM. Besides, the inhibition at 10 µM (inhibitor concentration 10 μM) came to 100%.
In the case of `O=C(c1ccc(Oc2ccc(C(F)(F)F)cc2)cc1)c1ccc(Oc2ccc(F)c(F)c2)c(C(=O)O)c1` [8:5, 2-(3,4-Difluoro-phenoxy)-5-[4-(4-trifluoromethyl-phenoxy)-benzoyl]-benzoic acid], the inhibition at 10 µM (inhibitor concentration 10 μM) was determined as 96%.
`O=C(Nc1ccc(C(=O)c2ccc(NC(=O)c3cccc(Cl)c3O)c(C(=O)O)c2)cc1)c1cccc(Cl)c1` [7:7, 5-[4-(3-Chloro-benzoylamino)-benzoyl]-2-(3-chloro-2-hydroxy-benzoylamino)-benzoic acid]: for the setting “inhibitor concentration 10 μM”, the inhibition at 10 µM was 82%.
Still for that read-out and setting: under `O=C(Nc1ccc(C(=O)c2ccc(NC(=O)c3cccc(F)c3F)c(C(=O)O)c2)cc1)c1cccc(Cl)c1` [7:4, 5-[4-(3-Chloro-benzoylamino)-benzoyl]-2-(2,3-difluoro-benzoylamino)-benzoic acid] stands 100%; under `CN(c1ccc(Cl)cc1)c1ccc(C(=O)c2ccc(Oc3cccc(Cl)c3Cl)c(C(=O)O)c2)cc1` [6:9, 5-{4-[(4-Chloro-phenyl)-methyl-amino]-benzoyl}-2-(2,3-dichloro-phenoxy)-benzoic acid], 66%.
`CCCCOc1ccc(S(=O)(=O)Nc2ccc(C(=O)c3ccc(N(C)c4ccc(F)c(F)c4)c(C(=O)O)c3)cc2)cc1` [Example 17, 5-(4-(4-butoxyphenylsulfonamido)benzoyl)-2-((3,4-di-fluorophenyl)(methyl)amino)benzoic acid]: the inhibition at 10 µM (inhibitor concentration 10 μM) turned out to be 99%.
On the same count and under the same terms, for `CN(c1ccc(Cl)cc1)c1ccc(C(=O)c2ccc(Oc3cccc4c3CCCC4)c(-c3nnn[nH]3)c2)cc1` [10:1, {4-[(4-Chloro-phenyl)-methyl-amino]-phenyl}-[4-(5,6,7,8-tetrahydro-naphthalen-1-yloxy)-3-(1H-tetrazol-5-yl)-phenyl]-methanone] the value was 97%.
For `O=C(Nc1ccc(C(=O)c2ccc(NS(=O)(=O)c3ccc(Cl)cc3)c(C(=O)O)c2)cc1)c1cccc(Cl)c1` [7:2, 2-(4-Chloro-benzenesulfonylamino)-5-[4-(3-chloro-benzoylamino)-benzoyl]-benzoic acid], where the note is “inhibitor concentration 10 μM”, the inhibition at 10 µM was found to be 100%.
The same measure, in the same setting: for `CN(c1ccc(Cl)cc1)c1ccc(C(=O)c2ccc(Oc3ccccc3Cl)c(C(=O)O)c2)cc1` [6:4, 2-(2-Chloro-phenoxy)-5-{4-[(4-chloro-phenyl)-methyl-amino]-benzoyl}-benzoic acid] the value was 97%.
Turning to `CN(c1ccc(Cl)cc1)c1ccc(C(=O)c2ccc(Nc3ccc(C(F)(F)F)cc3)c(-c3nnn[nH]3)c2)cc1` [10:3, {4-[(4-Chloro-phenyl)-methyl-amino]-phenyl}-[3-(1H-tetrazol-5-yl)-4-(4-trifluoromethyl-phenylamino)-phenyl]-methanone], the inhibition at 10 µM (inhibitor concentration 10 μM) is 71%.
Still for that read-out and setting: under `O=C(c1ccc(Nc2cccc(Cl)c2)cc1)c1ccc(Oc2ccc(F)c(F)c2)c(C(=O)O)c1` [8:2, 5-[4-(3-Chloro-phenylamino)-benzoyl]-2-(3,4-difluoro-phenoxy)-benzoic acid] stands 98%.
On to `O=C(Nc1ccc(C(=O)c2ccc(NC(=O)c3cccc4ccsc34)c(C(=O)O)c2)cc1)c1cccc(Cl)c1` [7:5, 2-[(Benzo[b]thiophene-7-carbonyl)-amino]-5-[4-(3-chloro-benzoylamino)-benzoyl]-benzoic acid], for which the inhibition at 10 µM (inhibitor concentration 10 μM) is 100%.
Same read-out and setting: for `O=C(Nc1ccc(C(=O)c2ccc(Nc3ccc(F)c(F)c3)c(C(=O)O)c2)cc1)c1cccc(Cl)c1` [5:11, 5-[4-(3-Chloro-benzoylamino)-benzoyl]-2-(3,4-difluoro-phenylamino)-benzoic acid] the value was 87%.
For `O=C(Nc1ccc(C(=O)c2ccc(NC(=O)c3ccc(C(F)(F)F)cc3F)c(C(=O)O)c2)cc1C(=O)O)c1ccc(C(F)(F)F)cc1` [Example 8, 2-(2-fluoro-4-(trifluoromethyl)benzamido)-5-(4-(4-(tri-fluoromethyl)benzamido)-3-carboxyphenylcarbonyl)-benzoic acid], the IC50 was 73 nM. Where the note is “inhibitor concentration 10 μM”, the inhibition at 10 µM worked out at 100%.
For `O=C(c1ccc(NC(=O)c2cc(Cl)ccc2Cl)cc1)c1ccc(Nc2ccc(F)c(F)c2)c(C(=O)O)c1` [5:10, 5-[4-(2,5-Dichloro-benzoylamino)-benzoyl]-2-(3,4-difluoro-phenylamino)-benzoic acid], under “inhibitor concentration 10 μM”, the inhibition at 10 µM stood at 98%.
As for `O=C(c1ccc(NC(=O)c2cc(Cl)ccc2O)cc1)c1ccc(Nc2ccc(F)c(F)c2)c(C(=O)O)c1` [5:4, 5-[4-(5-Chloro-2-hydroxy-benzoylamino)-benzoyl]-2-(3,4-difluoro-phenylamino)-benzoic acid], the inhibition at 10 µM (inhibitor concentration 10 μM) came to 78%.
`O=C(Nc1ccc(C(=O)c2ccc(NC(=O)c3cccc(Cl)c3)c(C(=O)O)c2)cc1)c1cccc(Cl)c1` [7:1, 2-(3-Chloro-benzoylamino)-5-[4-(3-chloro-benzoylamino)-benzoyl]-benzoic acid]: where the note is “inhibitor concentration 10 μM”, the inhibition at 10 µM came out at 97%.
The same measure, in the same setting: for `O=C(c1ccc(Nc2ccc(Cl)nc2)cc1)c1ccc(Nc2ccc(F)c(F)c2)c(C(=O)O)c1` [5:7, 5-[4-(6-Chloro-pyridin-3-ylamino)-benzoyl]-2-(3,4-difluoro-phenylamino)-benzoic acid] the value was 90%; for `CCCCOc1ccc(S(=O)(=O)Nc2ccc(C(=O)c3ccc(NC(=O)c4cccc(Cl)c4Cl)c(C(=O)O)c3)cc2C(=O)O)cc1` [Example 12, 5-[(3-Carboxy-4-(4-n-butoxy-benzenesulfonylamino)benzoyl)]-2-(2,3-dichlorobenzoylamino)benzoic acid], 98%.
As for `O=C(c1ccc(Nc2ccc(F)c(F)c2)cc1)c1ccc(Oc2ccc(F)c(F)c2)c(C(=O)O)c1` [8:1, 2-(3,4-Difluoro-phenoxy)-5-[4-(3,4-difluoro-phenylamino)-benzoyl]-benzoic acid], the inhibition at 10 µM (inhibitor concentration 10 μM) is 97%.
